Assays:
[1] = target: T1, Peroxisome proliferator-activated receptor alpha (Homo sapiens, UniProt Q07869); test: Agonist activity at human PPARalpha expressed in african green monkey CV1 cells by Gal4 transactivation assay; assay type: functional, cell-based, CV-1
T1 sequence (Q07869 whole entry): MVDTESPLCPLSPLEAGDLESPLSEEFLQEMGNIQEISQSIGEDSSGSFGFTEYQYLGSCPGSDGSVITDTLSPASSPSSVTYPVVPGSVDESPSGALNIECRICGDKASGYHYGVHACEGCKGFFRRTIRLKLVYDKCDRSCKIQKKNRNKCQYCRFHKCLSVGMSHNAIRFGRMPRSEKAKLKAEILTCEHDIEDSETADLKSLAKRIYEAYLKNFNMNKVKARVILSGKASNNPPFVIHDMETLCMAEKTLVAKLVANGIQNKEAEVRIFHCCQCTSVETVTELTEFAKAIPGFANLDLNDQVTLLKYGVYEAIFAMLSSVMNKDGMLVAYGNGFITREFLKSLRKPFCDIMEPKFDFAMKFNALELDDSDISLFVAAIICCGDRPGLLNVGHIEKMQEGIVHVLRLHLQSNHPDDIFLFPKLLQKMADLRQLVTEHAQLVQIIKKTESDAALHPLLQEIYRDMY

[2] = target: T2, Peroxisome proliferator-activated receptor alpha (Homo sapiens) (UniProt Q07869); test: Agonist activity at human PPARalpha expressed in african green monkey CV1 cells by Gal4 transactivation assay relative to SW516; assay type: functional, cell-based; conditions: CV-1
T2 sequence (whole entry): T1 sequence (Q07869 whole entry)

[3] = target: T1, Peroxisome proliferator-activated receptor alpha; test: Displacement of radiolabeled GW-2433 from human PPARalpha ligand binding domain expressed in Escherichia coli
[4] = target: T3, Peroxisome proliferator-activated receptor delta (Homo sapiens, UniProt Q03181); test: Displacement of radiolabeled GW-2433 from human PPARdelta ligand binding domain expressed in Escherichia coli
T3 sequence (Q03181 whole entry): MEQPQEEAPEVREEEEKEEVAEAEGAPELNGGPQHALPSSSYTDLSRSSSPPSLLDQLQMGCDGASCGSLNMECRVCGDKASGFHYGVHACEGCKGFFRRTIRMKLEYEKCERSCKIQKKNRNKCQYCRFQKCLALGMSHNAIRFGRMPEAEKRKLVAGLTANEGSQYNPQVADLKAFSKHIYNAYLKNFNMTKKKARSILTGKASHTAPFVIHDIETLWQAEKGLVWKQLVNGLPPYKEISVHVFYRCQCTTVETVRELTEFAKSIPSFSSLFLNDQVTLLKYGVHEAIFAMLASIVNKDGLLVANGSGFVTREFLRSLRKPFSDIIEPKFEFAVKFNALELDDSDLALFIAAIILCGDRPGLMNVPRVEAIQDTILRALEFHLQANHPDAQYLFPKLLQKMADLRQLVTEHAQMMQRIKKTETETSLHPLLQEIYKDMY

[5] = target: T4, Peroxisome proliferator-activated receptor gamma (Homo sapiens, UniProt P37231)
T4 sequence (P37231 whole entry): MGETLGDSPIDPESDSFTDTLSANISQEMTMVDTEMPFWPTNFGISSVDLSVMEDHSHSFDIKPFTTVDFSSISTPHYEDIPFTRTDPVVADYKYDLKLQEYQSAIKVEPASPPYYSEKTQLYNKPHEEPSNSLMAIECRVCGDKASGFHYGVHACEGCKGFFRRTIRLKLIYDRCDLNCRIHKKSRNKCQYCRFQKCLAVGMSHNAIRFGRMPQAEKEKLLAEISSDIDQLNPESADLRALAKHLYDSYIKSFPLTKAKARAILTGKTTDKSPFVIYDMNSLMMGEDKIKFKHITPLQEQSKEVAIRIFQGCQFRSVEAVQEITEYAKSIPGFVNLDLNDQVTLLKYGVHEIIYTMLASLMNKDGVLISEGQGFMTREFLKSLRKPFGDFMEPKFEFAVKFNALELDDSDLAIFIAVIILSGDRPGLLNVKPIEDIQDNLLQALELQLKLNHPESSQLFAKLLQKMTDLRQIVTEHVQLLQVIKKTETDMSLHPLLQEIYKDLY
Description: Agonist activity at human PPARgamma expressed in african green monkey CV1 cells by Gal4 transactivation assay

[6] = target: T4, Peroxisome proliferator-activated receptor gamma; remark: listed apart in the source
Description: Displacement of radiolabeled ((5-{4-[Methyl-pyridin-2yl-amino)-ethoxy]-benzyl}-thiazolidine-2,4-dione) from human PPARgamma ligand binding domain expressed in Escherichia coli

[7] = AUC in Zucker fa/fa rat at 5 mg/kg, po; assay type: ADME, organism-based; design: dose 5 mg/kg, route oral; conditions: plasma
Rattus norvegicus [8] = test: Antidiabetic activity in Zucker fa/fa rat assessed as reduction in plasma glucose level in at 10 mg/kg, po twice a day for 5 days; assay type: functional; design: scale not given: the % may be the effect or the level left
Rattus norvegicus [9] = test: Antidiabetic activity in Zucker fa/fa rat assessed as reduction in triglyceride level in at 10 mg/kg, po twice a day for 5 days; assay type: functional; design: scale not given: the % may be the effect or the level left
Rattus norvegicus [10] = test: Antidiabetic activity in Zucker fa/fa rat assessed as reduction in hematocrit level in at 10 mg/kg, po twice a day for 5 days; assay type: functional; design: scale not given: the % may be the effect or the level left
[11] = target: T3, Peroxisome proliferator-activated receptor delta; test: Agonist activity at human PPARdelta expressed in african green monkey CV1 cells by Gal4 transactivation assay; assay type: functional, cell-based, CV-1
[12] = target: T5, Peroxisome proliferator-activated receptor gamma (Mus musculus, UniProt P37238); test: Agonist activity at mouse PPARgamma expressed in african green monkey CV1 cells by Gal4 transactivation assay; assay type: functional, cell-based, CV-1
T5 sequence (P37238 whole entry): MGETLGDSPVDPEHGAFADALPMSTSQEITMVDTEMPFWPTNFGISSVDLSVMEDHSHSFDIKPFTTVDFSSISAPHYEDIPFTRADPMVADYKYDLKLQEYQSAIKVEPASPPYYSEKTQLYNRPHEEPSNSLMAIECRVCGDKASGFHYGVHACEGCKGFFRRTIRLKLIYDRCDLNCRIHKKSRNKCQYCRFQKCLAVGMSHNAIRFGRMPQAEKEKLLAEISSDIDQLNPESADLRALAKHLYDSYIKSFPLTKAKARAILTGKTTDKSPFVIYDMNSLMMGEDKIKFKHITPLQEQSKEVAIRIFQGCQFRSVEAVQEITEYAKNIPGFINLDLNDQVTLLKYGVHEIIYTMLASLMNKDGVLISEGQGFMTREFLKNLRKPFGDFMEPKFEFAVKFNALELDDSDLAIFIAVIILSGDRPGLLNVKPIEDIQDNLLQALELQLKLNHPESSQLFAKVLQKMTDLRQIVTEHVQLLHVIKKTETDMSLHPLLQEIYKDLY

[13] = target: T6, Peroxisome proliferator-activated receptor alpha (Mus musculus, UniProt P23204); test: Agonist activity at mouse PPARalpha expressed in african green monkey CV1 cells by Gal4 transactivation assay; assay type: functional, cell-based, CV-1
T6 sequence (P23204 whole entry): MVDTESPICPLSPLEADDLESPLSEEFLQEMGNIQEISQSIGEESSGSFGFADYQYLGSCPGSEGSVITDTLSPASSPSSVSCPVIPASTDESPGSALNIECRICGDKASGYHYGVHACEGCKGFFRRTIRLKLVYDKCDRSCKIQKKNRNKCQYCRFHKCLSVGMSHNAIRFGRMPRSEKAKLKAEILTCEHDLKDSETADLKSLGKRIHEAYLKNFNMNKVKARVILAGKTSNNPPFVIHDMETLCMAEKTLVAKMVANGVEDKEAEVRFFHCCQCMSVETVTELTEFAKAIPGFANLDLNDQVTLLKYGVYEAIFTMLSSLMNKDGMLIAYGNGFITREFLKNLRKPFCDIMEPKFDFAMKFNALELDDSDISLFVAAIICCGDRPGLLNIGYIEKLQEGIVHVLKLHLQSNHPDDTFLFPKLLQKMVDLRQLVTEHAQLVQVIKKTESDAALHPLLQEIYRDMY

[14] = target: T7, Peroxisome proliferator-activated receptor delta (Mus musculus, UniProt P35396); test: Agonist activity at mouse PPARdelta expressed in african green monkey CV1 cells by Gal4 transactivation assay; assay type: functional, cell-based, CV-1
T7 sequence (P35396 whole entry): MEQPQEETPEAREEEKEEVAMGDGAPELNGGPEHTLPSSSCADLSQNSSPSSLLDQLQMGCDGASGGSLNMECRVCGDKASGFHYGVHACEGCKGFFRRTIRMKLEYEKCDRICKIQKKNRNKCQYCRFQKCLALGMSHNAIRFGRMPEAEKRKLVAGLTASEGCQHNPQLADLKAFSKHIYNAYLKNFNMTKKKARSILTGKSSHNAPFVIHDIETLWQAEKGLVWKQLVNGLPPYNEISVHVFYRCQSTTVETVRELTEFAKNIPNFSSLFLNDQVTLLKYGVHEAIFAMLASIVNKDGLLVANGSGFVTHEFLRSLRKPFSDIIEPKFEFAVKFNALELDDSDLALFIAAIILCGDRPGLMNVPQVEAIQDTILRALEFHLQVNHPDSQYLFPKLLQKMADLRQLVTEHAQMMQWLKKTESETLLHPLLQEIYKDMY

[15] = target: T8, Peroxisome proliferator-activated receptor alpha (Mus musculus) (UniProt P23204); test: Agonist activity at mouse PPARalpha expressed in african green monkey CV1 cells by Gal4 transactivation assay relative to SW516; assay type: functional, cell-based; conditions: CV-1
T8 sequence (whole entry): T6 sequence (P23204 whole entry)

[16] = Oral bioavailability in CD rat at 1 mg/kg, iv; assay type: ADME, organism-based; conditions: in vivo
[17] = Clearance in CD rat at 1 mg/kg, iv and 5 mg/kg, po; assay type: ADME, organism-based; conditions: in vivo
[18] = Volume of distribution at steady state in CD rat at 1 mg/kg, iv and 5 mg/kg, po; assay type: ADME, organism-based; conditions: in vivo, read-out: Vdss
[19] = Half life in CD rat at 1 mg/kg, iv and 5 mg/kg, po; assay type: ADME, organism-based; conditions: in vivo
[20] = AUC in CD rat at 5 mg/kg, po; assay type: ADME, organism-based; design: dose 5 mg/kg, route oral; conditions: plasma
Rattus norvegicus [21] = test: Antidiabetic activity in Zucker fa/fa rat assessed as reduction in plasma glucose level in at 40 mg/kg, po twice a day for 5 days; assay type: functional; design: scale not given: the % may be the effect or the level left
Rattus norvegicus [22] = test: Antidiabetic activity in Zucker fa/fa rat assessed as reduction in triglyceride level in at 40 mg/kg, po twice a day for 5 days; assay type: functional; design: scale not given: the % may be the effect or the level left
Rattus norvegicus [23] = test: Antidiabetic activity in Zucker fa/fa rat assessed as reduction in hematocrit level in at 40 mg/kg, po twice a day for 5 days; assay type: functional; design: scale not given: the % may be the effect or the level left
[24] = Cmax in CD rat at 1 mg/kg, iv and 5 mg/kg, po; assay type: ADME, organism-based; conditions: in vivo

IC50 [3] [µM]	IC50 [4] [µM]	IC50 [6] [µM]	EC50 [11] [µM]	SMILES	EC50 [1] [µM]	EC50 [5] [µM]	further results
> 10	> 10	0.574		CCC(C(=O)Nc1ccc2c(c1)c(C)c(C)n2Cc1ccc(-c2ccccc2C(=O)O)cc1)c1ccccc1 (stereo not drawn)	6.14	0.338	Activity [2]: 45%
				CN(CCOc1ccc(C[C@H](Nc2ccccc2C(=O)c2ccccc2)C(=O)O)cc1)c1ccccn1			AUC [7]: 16500 ng·h/mL; Activity (Rattus norvegicus [8]): 21%; Activity (Rattus norvegicus [9]): 54%; Activity (Rattus norvegicus [10]): 15%
> 10	> 10	12.2	> 10	CCCc1nc2c(C)cc(-c3nc4ccccc4n3C)cc2n1Cc1ccc(-c2ccccc2C(=O)O)cc1	> 10	2.02	EC50 [12]: 4.06 µM; EC50 [13]: > 10 µM; EC50 [14]: > 10 µM
> 10	> 10	0.036	> 10	CCCc1c(SC)c2cc(NC(=O)C(CC)c3ccccc3)ccc2n1Cc1ccc(-c2ccccc2C(=O)O)cc1 (stereo not drawn)	> 10	0.003	
> 10	> 10		> 10	Cc1c(C)n(Cc2ccc(-c3ccccc3C(=O)O)cc2)c2ccc(C(=O)NCc3ccccc3)cc12	> 10		
7.04	> 10	0.018	> 10	CCC(NC(=O)c1ccc2c(c1)cc(C)n2Cc1ccc(-c2ccccc2C(=O)O)cc1)c1ccccc1 (stereo not drawn)	4.96	0.017	Activity [2]: 114%
> 10	> 10	0.012	> 10	CCC(NC(=O)c1ccc2c(c1)c(SC)c(C)n2Cc1ccc(-c2ccccc2C(=O)O)cc1)c1ccccc1 (stereo not drawn)	> 10	0.001	

SMILES	IC50 [3] [µM]	IC50 [4] [µM]	IC50 [6] [µM]	EC50 [11] [µM]	EC50 [1] [µM]	EC50 [5] [µM]	further results
Cc1c(C)n(Cc2ccc(-c3ccccc3C(=O)O)cc2)c2ccc(C(=O)NCCCc3ccccc3)cc12	> 10	> 10	0.018	> 10	> 10	0.022	
CCC(NC(=O)c1ccc2c(c1)c(C)c(C)n2Cc1ccc(-c2ccccc2C(=O)O)cc1)c1ccccc1 (stereo not drawn)	> 10	> 10		> 10	> 10		EC50 [12]: 0.002 µM; EC50 [13]: 5.51 µM; Activity [15]: 79%; EC50 [14]: > 10 µM; bioavailability [16]: 52%; clearance [17]: 40 mL/min/kg; Vd [18]: 17 L/kg; half-life [19]: 4.58 h; AUC [20]: 1150 ng·h/mL; AUC [7]: 1330 ng·h/mL; Activity (Rattus norvegicus [21]): 25%; Activity (Rattus norvegicus [22]): 49%; Activity (Rattus norvegicus [23]): >10%; Cmax [24]: 319 ng/mL
CCCc1cc2cc(NC(=O)C(CC)c3ccccc3)ccc2n1Cc1ccc(-c2ccccc2C(=O)O)cc1 (stereo not drawn)	> 10	> 10	0.26		> 10	0.002	
CCCc1nc2ccc(C(=O)NC(CC)c3ccccc3)cc2n1Cc1ccc(-c2ccccc2C(=O)O)cc1 (stereo not drawn)				> 10	> 10	0.9	EC50 [12]: 1.69 µM; EC50 [13]: > 10 µM; EC50 [14]: > 10 µM
CCCc1c(SC)c2ccc(NC(=O)C(CC)c3ccccc3)cc2n1Cc1ccc(-c2ccccc2C(=O)O)cc1 (stereo not drawn)	> 10	6.95	0.49		> 10	0.201	
CCC(NC(=O)c1ccc2cc(C)n(Cc3ccc(-c4ccccc4C(=O)O)cc3)c2c1)c1ccccc1 (stereo not drawn)	> 10	> 10	0.321	> 10	> 10	0.163	
